One molecule from patent US9365857B2, “Xylose isomerase and xylitol dehydrogenase combination for xylose fermentation to ethanol and B. fragilis xylose isomerase” (Archer Daniels Midland Company, priority 2010, dated 2016) can be followed below.

Assay [1] concerns the target T1, B. fragilis xylose isomerase (SEQ. ID NO: 4) (Bacteroides fragilis, UniProt Q5LCV9).
T1 construct: ID NO: 4 in comparison to its E. coli orthologue
Nature of the assay: xylitol inhibition of xylose isomerase activity (B. fragilis XI, SEQ. ID NO: 4). It counts as biochemical. Particulars: 12.5 mM xylitol; percent of activity obtained in the absence of xylitol. The method, then: (§1) Activity is reported as the percent of activity obtained in the absence of xylitol.
(§2) A distinguishing feature of the B. fragilis isomerases described herein is that enzymes are less inhibited by xylitol than orthologue XI sequences from other organism. […] ID NO: 4 in comparison to its E. coli orthologue. At 12.5 mM xylitol, the E. coli XI activity is >97% inhibited, in contrast to the B. fragilis XI, which retains at least 30% of its activity at the same xylitol concentration.

The target in a further assay is E. coli xylose isomerase (Escherichia coli, UniProt P00944). Nature of the assay: xylitol inhibition of xylose isomerase activity (E. coli XI). It counts as biochemical. Particulars: read-out: E. coli XI activity inhibited. The method, then:
as §1, §2

Chain of E. coli xylose isomerase (P00944 whole entry): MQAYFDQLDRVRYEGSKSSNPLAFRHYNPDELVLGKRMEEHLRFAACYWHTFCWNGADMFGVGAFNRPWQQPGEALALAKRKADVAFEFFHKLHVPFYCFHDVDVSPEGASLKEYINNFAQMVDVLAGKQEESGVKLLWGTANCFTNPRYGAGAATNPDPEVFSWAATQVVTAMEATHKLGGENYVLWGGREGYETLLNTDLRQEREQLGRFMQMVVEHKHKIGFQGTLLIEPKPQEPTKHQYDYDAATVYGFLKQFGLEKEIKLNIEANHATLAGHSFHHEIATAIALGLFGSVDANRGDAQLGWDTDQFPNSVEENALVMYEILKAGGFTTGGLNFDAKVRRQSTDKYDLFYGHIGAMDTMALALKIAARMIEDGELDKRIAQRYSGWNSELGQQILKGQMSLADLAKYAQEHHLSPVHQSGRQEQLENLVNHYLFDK
T1 sequence (Q5LCV9 whole entry, looked up, natural form): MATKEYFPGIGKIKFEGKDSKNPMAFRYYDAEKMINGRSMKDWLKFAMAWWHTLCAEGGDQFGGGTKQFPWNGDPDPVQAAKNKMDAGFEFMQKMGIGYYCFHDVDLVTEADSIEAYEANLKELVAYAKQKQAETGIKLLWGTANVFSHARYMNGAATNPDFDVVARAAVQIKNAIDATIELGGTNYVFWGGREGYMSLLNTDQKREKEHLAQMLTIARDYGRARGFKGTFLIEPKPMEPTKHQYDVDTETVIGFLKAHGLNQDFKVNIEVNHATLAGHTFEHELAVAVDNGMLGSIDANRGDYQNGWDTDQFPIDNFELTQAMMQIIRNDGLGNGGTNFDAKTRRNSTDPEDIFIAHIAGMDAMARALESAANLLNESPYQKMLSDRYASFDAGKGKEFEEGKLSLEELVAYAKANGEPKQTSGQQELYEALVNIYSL

As for `OC[C@@H](O)[C@H](O)[C@@H](O)CO` [xylitol], the “B. fragilis XI activity retained” value in assay [1] is on record as “at least 30%”. Moreover, on E. coli xylose isomerase, the inhibition at 12500 µM was more than 97%.
